Test results from patent publication US9708334B2, “Substituted 2,4,5,6-tetrahydropyrrolo[3,4-c]pyrazole and 4,5,6,7-tetrahydro-2H-pyrazolo[4,3-c]pyridine compounds as GlyT1 inhibitors” (DART NEUROSCIENCE (CAYMAN) LTD., priority 2014, dated 2017).

Target: T1, GlyT1 (Homo sapiens, UniProt P48067)
T1 construct: expressed in transfected cells
T1 sequence (P48067 1-706): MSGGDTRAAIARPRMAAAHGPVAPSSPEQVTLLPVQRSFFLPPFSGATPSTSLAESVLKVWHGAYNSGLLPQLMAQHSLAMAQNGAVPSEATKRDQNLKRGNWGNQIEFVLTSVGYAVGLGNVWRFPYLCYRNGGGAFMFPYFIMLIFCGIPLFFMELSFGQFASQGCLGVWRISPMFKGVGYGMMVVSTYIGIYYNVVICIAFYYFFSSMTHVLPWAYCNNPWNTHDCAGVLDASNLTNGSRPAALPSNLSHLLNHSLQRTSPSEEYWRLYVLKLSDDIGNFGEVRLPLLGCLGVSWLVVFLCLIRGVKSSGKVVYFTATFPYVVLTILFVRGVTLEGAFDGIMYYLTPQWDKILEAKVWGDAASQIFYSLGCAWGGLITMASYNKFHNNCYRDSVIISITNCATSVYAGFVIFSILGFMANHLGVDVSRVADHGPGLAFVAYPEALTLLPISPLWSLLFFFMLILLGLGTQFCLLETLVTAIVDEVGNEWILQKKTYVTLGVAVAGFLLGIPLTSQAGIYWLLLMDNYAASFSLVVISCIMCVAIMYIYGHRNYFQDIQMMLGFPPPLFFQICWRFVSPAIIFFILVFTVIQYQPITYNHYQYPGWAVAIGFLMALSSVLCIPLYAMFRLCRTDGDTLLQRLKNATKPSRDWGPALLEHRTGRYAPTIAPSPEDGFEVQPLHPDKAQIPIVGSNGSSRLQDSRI
Assay: Glycine Transporter 1 (GlyT1) uptake assay, scintillation proximity assay of [14C]-glycine uptake
Format: cell-based
Conditions: SPA, four parameter logistic fit, read-out: GlyT1 (pIC50) (converted)
Summary of the method: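 IC50 values derive from four-parameter logistic curves fitted to dose-response data. Uptake of [14C]-glycine measured in scintillation proximity format.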

| IC50 | Compound |
| --- | --- |
| < 100 nM | CS(=O)(=O)c1ccc(N2CCCCC2)c(C(=O)N2Cc3cn(-c4ccc(F)cc4)nc3C2)c1 [Example 363, 1-{2-[2-(4-Fluorophenyl)-2H 4H 5H 6H-pyrrolo[3,4-c]pyrazole-5-carbonyl]-4-methanesulfonylphenyl}piperidine] |
| 100 to 1000 nM | N#Cc1ccc(-c2cncc(F)c2)c(C(=O)N2Cc3cn(-c4cncc(F)c4)nc3C2)c1 [Example 552, 4-(5-Fluoropyridin-3-yl)-3-[2-(5-fluoropyridin-3-yl)-2H 4H 5H 6H-pyrrolo[3,4-c]pyrazole-5-carbonyl]benzonitrile] |
| < 100 nM | C[C@H](Oc1ccc(S(C)(=O)=O)cc1C(=O)N1Cc2cn(CC3CCC3)nc2C1)C(F)(F)F [Example 409] |
| < 100 nM | CS(=O)(=O)c1ccc(-c2ccccc2)c(C(=O)N2Cc3cn(-c4ccc(F)cn4)nc3C2)c1 [Example 566, 5-Fluoro-2-[5-(5-methanesulfonyl-2-phenylbenzoyl)-2H 4H 5H 6H-pyrrolo[3,4-c]pyrazol-2-yl]pyridine] |
| 100 to 1000 nM | COc1c(C#N)ccc(C2(F)CCC2)c1C(=O)N1CCc2nn(-c3ccc(F)cc3)cc2C1 [Example 489, 4-(1-Fluorocyclobutyl)-3-[2-(4-fluorophenyl)-2H 4H 5H 6H 7H-pyrazolo[4,3-c]pyridine-5-carbonyl]-2-methoxybenzonitrile] |
| < 100 nM | CC(C)Cn1cc2c(n1)CN(C(=O)c1cc(S(C)(=O)=O)ccc1N1CCC(F)(F)CC1)C2 [Example 432, 4 4-Difluoro-1-{4-methanesulfonyl-2-[2-(2-methylpropyl)-2H 4H 5H 6H-pyrrolo[3,4-c]pyrazole-5-carbonyl]phenyl}piperidine] |
| 1000 to 10000 nM | N#Cc1ccc(OCC(F)(F)F)c(C(=O)N2CCc3nn(-c4ccc(F)cc4)cc3C2)c1Cl [Example 223, 2-Chloro-3-[2-(4-fluorophenyl)-2H 4H 5H 6H 7H-pyrazolo[4,3-c]pyridine-5-carbonyl]-4-(2 2 2-trifluoroethoxy)benzonitrile] |
| 100 to 1000 nM | Cc1c2c(nn1-c1ccc(F)cc1)CCN(C(=O)c1c(OC(C)C(F)(F)F)ccc(C#N)c1Cl)C2 (stereo not shown) [Example 189, 2-Chloro-3-[2-(4-fluorophenyl)-3-methyl-2H 4H 5H 6H 7H-pyrazolo[4,3-c]pyridine-5-carbonyl]-4-[(1 1 1-trifluoropropan-2-yl)oxy]benzonitrile] |
| 100 to 1000 nM | CC(C)Oc1ccc(C#N)cc1C(=O)N1Cc2cn(-c3ccc(F)cc3)nc2C1 [Example 529, 3-[2-(4-Fluorophenyl)-2H 4H 5H 6H-pyrrolo[3,4-c]pyrazole-5-carbonyl]-4-(propan-2-yloxy)benzonitrile] |
| < 100 nM | COc1c(C#N)ccc(O[C@@H](C)C(F)(F)F)c1C(=O)N1Cc2cn(-c3cncc(F)c3)nc2C1 [Example 250, 3-[2-(5-Flouropyridin-3-yl)-2H 4H 5H 6H-pyrrolo[3,4-c]pyrazole-5-carbonyl]-2-methoxy-4-{[(2S)-1 1 1-trifluoropropan-2-yl]oxy}benzonitrile] |
| < 100 nM | CCc1cc(-n2cc3c(n2)CN(C(=O)c2cc(S(C)(=O)=O)ccc2N2CCC(F)(F)CC2)C3)ccn1 [Example 131, 4-{5-[2-(4 4-Difluoropiperidin-1-yl)-5-methanesulfonylbenzoyl]-2H 4H 5H 6H-pyrrolo[3,4-c]pyrazol-2-yl}-2-ethylpyridine] |
| < 100 nM | CC(C)Oc1ccc(C#N)cc1C(=O)N1Cc2cn(-c3ccccc3)nc2C1 [Example 334, 3-{2-Phenyl-2H 4H 5H 6H-pyrrolo[3,4-c]pyrazole-5-carbonyl}-4-(propan-2-yloxy)benzonitrile] |
| < 100 nM | CC(C)Oc1ccc(S(C)(=O)=O)cc1C(=O)N1Cc2cn(-c3cc(F)ccc3F)nc2C1 [Example 129, 2-(2 5-Difluorophenyl)-5-[5-methanesulfonyl-2-(propan-2-yloxy)benzoyl]-2H 4H 5H 6H-pyrrolo[3,4-c]pyrazole] |
| < 100 nM | CS(=O)(=O)c1ccc(N2CCC(F)(F)CC2)c(C(=O)N2Cc3cn(-c4ccc(F)cc4)nc3C2)c1 [Example 56, 4 4-Difluoro-1-{2-[2-(4-fluorophenyl)-2H 4H 5H 6H-pyrrolo[3,4-c]pyrazole-5-carbonyl]-4-methanesulfonylphenyl}piperidine] |
| < 100 nM | CC(C)Oc1ccc(C#N)cc1C(=O)N1Cc2cn(-c3ccnc(C(C)C)c3)nc2C1 [Example 374, 3-{2-[2-(Propan-2-yl)pyridin-4-yl]-2H 4H 5H 6H-pyrrolo[3,4-c]pyrazole-5-carbonyl}-4-(propan-2-yloxy)benzonitrile] |
| 1000 to 10000 nM | COc1cc(-n2ncc3c2CN(C(=O)c2cc(C#N)ccc2OC(C)C)C3)ccn1 [Example 366, 3-[1-(2-Methoxypyridin-4-yl)-1H 4H 5H 6H-pyrrolo[3,4-c]pyrazole-5-carbonyl]-4-(propan-2-yloxy)benzonitrile] |
| 100 to 1000 nM | CC1(COc2ccc(S(C)(=O)=O)cc2C(=O)N2Cc3cn(-c4cccc(C(F)(F)F)c4F)nc3C2)COC1 [Example 438, 2-[2-Fluoro-3-(trifluoromethyl)phenyl]-5-{5-methanesulfonyl-2-[(3-methyloxetan-3-yl)methoxy]benzoyl}-2H 4H 5H 6H-pyrrolo[3,4-c]pyrazole] |
| < 100 nM | C[C@H](Oc1ccc(S(C)(=O)=O)cc1C(=O)N1Cc2cn(-c3cccc(Cl)c3F)nc2C1)C(F)(F)F [Example 146, 2-(3-Chloro-2-fluorophenyl)-5-(5-methanesulfonyl-2-{[(2S)-1 1 1-trifluoropropan-2-yl]oxy}benzoyl)-2H 4H 5H 6H-pyrrolo[3,4-c]pyrazole] |
| 100 to 1000 nM | CC(Oc1ccc(C#N)c(Cl)c1C(=O)N1CCc2c(cnn2Cc2ccccc2)C1)C(F)(F)F (stereo not shown) [Example 195, 3-{1-Benzyl-1H 4H 5H 6H 7H-pyrazolo[4,3-c]pyridine-5-carbonyl}-2-chloro-4-[(1 1 1-trifluoropropan-2-yl)oxy]benzonitrile] |
| 1000 to 10000 nM | CS(=O)(=O)c1ccc(-c2cncc(F)c2)c(C(=O)N2Cc3cn(-c4ccc(F)cn4)nc3C2)c1 [Example 548, 5-Fluoro-2-{5-[2-(5-fluoropyridin-3-yl)-5-methanesulfonylbenzoyl]-2H 4H 5H 6H-pyrrolo[3,4-c]pyrazol-2-yl}pyridine] |
| 1000 to 10000 nM | C[C@H](Oc1ccc(C#N)cc1C(=O)N1Cc2cnn(CC3CCOCC3)c2C1)C(F)(F)F [Example 394, 3-[1-(Oxan-4-ylmethyl)-1H 4H 5H 6H-pyrrolo[3,4-c]pyrazole-5-carbonyl]-4-{[(2S)-1 1 1-trifluoropropan-2-yl]oxy}benzonitrile] |
| 100 to 1000 nM | COc1c(C#N)ccc(OC(C)C(F)(F)F)c1C(=O)N1CCc2nn(-c3ccc(F)cn3)cc2C1 (stereo not shown) [Example 202, 3-[2-(5-Fluoropyridin-2-yl)-2H 4H 5H 6H 7H-pyrazolo[4,3-c]pyridine-5-carbonyl]-2-methoxy-4-[(1 1 1-trifluoropropan-2-yl)oxy]benzonitrile] |
| 100 to 1000 nM | COc1cccc(-n2cc3c(n2)CCN(C(=O)c2c(OC(C)C(F)(F)F)ccc(C#N)c2Cl)C3)c1 (stereo not shown) [Example 205, 2-Chloro-3-[2-(3-methoxyphenyl)-2H 4H 5H 6H 7H-pyrazolo[4,3-c]pyridine-5-carbonyl]-4-[(1 1 1-trifluoropropan-2-yl)oxy]benzonitrile] |
| < 100 nM | COc1ncc(F)cc1-n1cc2c(n1)CCN(C(=O)c1c(OC(C)C(F)(F)F)ccc(C#N)c1OC)C2 (stereo not shown) [Example 231, 3-[2-(5-Fluoro-2-methoxypyridin-3-yl)-2H 4H 5H 6H 7H-pyrazolo[4,3-c]pyridine-5-carbonyl]-2-methoxy-4-[(1 1 1-trifluoropropan-2-yl)oxy]benzonitrile] |
| 100 to 1000 nM | CNC(=O)c1ccc(OC(C)C(F)(F)F)c(C(=O)N2CCc3nn(-c4ccc(F)cc4)cc3C2)c1 (stereo not shown) [Example 482, 3-[2-(4-Fluorophenyl)-2H 4H 5H 6H 7H-pyrazolo[4,3-c]pyridine-5-carbonyl]-N-methyl-4-[(1 1 1-trifluoropropan-2-yl)oxy]benzamide] |
| < 100 nM | COc1c(C#N)ccc(O[C@@H](C)C(F)(F)F)c1C(=O)N1Cc2cn(-c3ccc(C)nc3)nc2C1 [Example 266, 2-Methoxy-3-[2-(6-methylpyridin-3-yl)-2H 4H 5H 6H-pyrrolo[3,4-c]pyrazole-5-carbonyl]-4-{[(2S)-1 1 1-trifluoropropan-2-yl]oxy}benzonitrile] |
| < 100 nM | COc1c(C#N)ccc(OC(C)C(F)(F)F)c1C(=O)N1CCc2c(cnn2C2CCCCC2)C1 (stereo not shown) [Example 215, 3-{1-Cyclohexyl-1H 4H 5H 6H 7H-pyrazolo[4,3-c]pyridine-5-carbonyl}-2-methoxy-4-[(1 1 1-trifluoropropan-2-yl)oxy]benzonitrile] |
| 100 to 1000 nM | COc1c(C#N)ccc(O[C@@H](C)C(F)(F)F)c1C(=O)N1Cc2cn(-c3ccc(C(F)(F)F)cn3)nc2C1 [Example 285, 2-Methoxy-3-{2-[5-(trifluoromethyl)pyridin-2-yl]-2H 4H 5H 6H-pyrrolo[3,4-apyrazole-5-carbonyl}-4-{1(2S)-1 1 1-trifluoropropan-2-yl]oxy}benzonitrile] |
